These results are taken from EP0052492A1, “3-Aryloxy-3-phenylpropylamines” (ELI LILLY AND COMPANY, priority 1980, dated 1982).

Read-outs that look alike come from different tables or passages of the source.

The target in data set [1] is strips of fresh guinea pig trachea, acetylcholine as the agonist. Description: Anticholinergic activity in guinea pig tracheal strips, acetylcholine as agonist (Schild plot). The note with it: for negative logarithm of the dissociation constant: acetylcholine as agonist, guinea pig trachea. Format: cell-based. As to the method:
The test was carried out on 2mm. x 30mm. strips of fresh guinea pig trachea. The strips were suspended in 10 ml. organ baths containing physiological salt solution at 37.5°, and aerated with a mixture of 5% carbon dioxide and 95% oxygen. The tracheal strips were attached to isometric transducers connected to an automatic recorder, and were allowed to equilibrate under a tension of 2 g. for at least 2 hours before addition of drug. Dose-response curves were obtained by adding increasing concentrations of drug to the bath, in approximately 3-fold increments. […] Consecutive dose-response curves on a given tissue were always separated by 1 hour of washing with fresh physiological salt solution to assure maximum washout of drug.
Dissociation constants were determined using acetylcholine as the agonist. In this method, the ratio of concentrations of acetylcholine giving equal responses in the presence and in the absence of the compound of this invention was determined at various concentrations of the compound. […] The method of calculation is clearly discussed by Arunlakshana and Schild, Some Quantitative Uses of Drug Antagonists, Brit. J. Pharmacol. 14 48-58 (1959).

For data set [2], the system named is uptake of [3H]-norepinephrine, hypothalamus. In words: Inhibition of norepinephrine uptake in hypothalamus homogenate after dosing live rats. The class given is in vivo, male Sprague-Dawley rats. To be noted: for ED50 / inhibition at 10 mg/kg: Rattus norvegicus; for ED50: ip, read-out: ED50 value. As to the method:
The test animals were male Sprague-Dawley rats weighing 110-150 g., which were treated in groups of 5 with the test compound at the doses and times specified, and were killed by decapitation. The hypothalamus was removed from each brain, and homogenized in a medium as described in the in vitro test above. Aliquots of the homogenate containing 1 mg. of protein were used; the incubation times, medium and temperature were as described in the test above.
The data were expressed another way by plotting the blood level of the compound against the rate of [^3H]norepinephrine uptake.

A short description of data set [3]: Oral absorption (statement only). To be noted: in vivo.
In data set [4] the test system is dopamine uptake, synaptosomes isolated from the corpus striatum. In words: In vitro uptake of [3H]dopamine by corpus striatum synaptosomes. Format: biochemical, male Sprague-Dawley rats. How it is done: (§1) Monoamine uptake inhibition was measured by the in vitro method of Wong and Bymaster, cited above. In this method, male Sprague-Dawley rats weighing 110-150 g. were killed by decapitation, and the whole brains were removed and dissected. Crude preparations of synaptosomes were prepared from 10% homogenates of specific areas of the brain in 0.32M sucrose and lOmM glucose by differential centrifugation, according to the method of Gray and Whittaker, J. Anat. 96, 79 (1962).
(§2) Uptake of [^3H]monoamines by synaptosomes was determined as follows. A portion of a synaptosome preparation equivalent to 1 mg. of protein was incubated at 37°. for 5 minutes in 1 or 3 ml. of Krebs bicarbonate medium containing an additional 10mM of glucose, 0.1mM iproniazid, ImM ascorbic acid, 0.17mM ethylenediaminetetraacetic acid and [3H]monoamine at a specified concentration. […] Radioactivity was measured with a liquid scintillation spectrometer, and the amount of [^3H]- monoamine accumulated by the synaptosomes at 4° represented the background count and was subtracted from the results obtained on all samples.
(§3) The effect of the compound of this invention on the uptake of [^3H]serotonin and [^3H]dopamine was also determined, by the same test method, using synaptosomes isolated from the corpus striatum for the determination of dopamine uptake and synaptosomes of cerebral cortex for serotonin uptake.

Data set [5] has as its system uptake of norepinephrine by synaptosomes of the hypothalamus after 6-hydroxydopamine. In words: Protection against 6-hydroxydopamine-induced loss of norepinephrine uptake. The class given is in vivo, male Sprague-Dawley rat. The note with it: Rattus norvegicus, ip; for ED50: antagonism of 6-hydroxydopamine, intraperitoneally. From the text:
The neurotoxic agent 6-hydroxydopamine has the property of destroying norepinephrinergic terminals of the central and peripheral nervous systems.

The subject of data set [6] is mice. Description: Acute toxicity in mice. To be noted: injected in mice.
The subject of data set [7] is uptake of norepinephrine by synaptosomes isolated from the hypothalamus. In words: In vitro uptake of [3H]norepinephrine by rat hypothalamus synaptosomes (method of Wong and Bymaster). The class given is biochemical, male Sprague-Dawley rats. The note with it: for Uptake: [3H]norepinephrine uptake. As to the method:
as §1
Uptake of [^3H]monoamines by synaptosomes was determined as follows. A portion of a synaptosome preparation equivalent to 1 mg. of protein was incubated at 37°. for 5 minutes in 1 or 3 ml. of Krebs bicarbonate medium containing an additional 10mM of glucose, 0.1mM iproniazid, ImM ascorbic acid, 0.17mM ethylenediaminetetraacetic acid and [3H]monoamine at a specified concentration. The incubation mixtures were immediately diluted with 2 ml. of ice-chilled Krebs bicarbonate buffer containing 1mM non-radioactive monoamine. Synaptosomes were harvested by centrifugation, and rinsed with 5 ml. of cold buffer into counting vials containing 10 ml. of scintillation fluid. Radioactivity was measured with a liquid scintillation spectrometer, and the amount of [^3H]- monoamine accumulated by the synaptosomes at 4° represented the background count and was subtracted from the results obtained on all samples.

Data set [8] has as its system serotonin uptake, synaptosomes of cerebral cortex. Description: In vitro uptake of [3H]serotonin by cerebral cortex synaptosomes. Format: biochemical, male Sprague-Dawley rats. As to the method:
as §1, §2, §3

Data set [9] relates to reduction in body temperature caused by apomorphine. In words: Apomorphine hypothermia antagonism test. The class given is in vivo, Mice. The note with it: for dose giving 50% antagonism of the hypothermia: compound intraperitoneally 30 minutes before apomorphine, temperature 30 minutes after.
Data set [10] deals with canine cardiac conducting tissue, sometimes called Purkinje fibers. The note with it: dog. From the text: Another test applied to the compound was one designed to detect electrophysiological effects in canine cardiac conducting tissue, sometimes called Purkinje fibers.
Data set [11] has as its system mice. To be noted: mouse, in vivo.
The mark [12] stands for this setting: 4 h, four hours after administration, read-out: inhibition of norepinephrine uptake.
The mark [13] stands for this setting: inhibition of norepinephrine uptake, intraperitoneally, 1 hour before sacrifice.
Where [14] appears, read: duration experiment up to 4 hours, read-out: maximum inhibition of norepinephrine uptake.

As for `CNCCC(Oc1ccccc1C)c1ccccc1.Cl` (racemic) [racemate, N-methyl-3-(2-methylphenoxy)-3-phenylpropylamine, hydrochloride, reference compound], the “negative logarithm of the dissociation constant” value in data set [1] was found to be 5.72. Further, in [2], the ED50 – broadly, the dose that gives a 50% effect, or the effect in half of the subjects – stood at 3.4 mg/kg.

Take `CNCCC(Oc1ccccc1C)c1ccccc1.Cl` (single isomer, unassigned; (-)) [compound of this invention, (-)-N-methyl-3-(2-methylphenoxy)-3-phenylpropylamine, hydrochloride]: the oral absorption result in [3] is “orally absorbed”. Also, the IC50 was determined as 4 µM in data set [4] and 1 µM in data set [8]. In addition, in [5] (1 mg./kg. intraperitoneally before 6-hydroxydopamine, read-out: reduced the inhibition of uptake (by 6-hydroxydopamine)), the inhibition (in general, the change of the read-out against control, counted positive when it falls) at 1 mg/kg was determined as 15%. Besides, the inhibition at 3 mg/kg in data set [5] (3 mg./kg. intraperitoneally before 6-hydroxydopamine, read-out: reduced the inhibition of uptake (by 6-hydroxydopamine)) was determined as 43%. Further, the inhibition at 6 mg/kg in data set [5] (6 mg./kg. intraperitoneally before 6-hydroxydopamine, read-out: reduced the inhibition of uptake (by 6-hydroxydopamine)) worked out at 70%. The median effective dose (ED50) in data set [5] amounted to 4 mg/kg; in data set [2] (setting [13]), 2.1 mg/kg. Besides, the “anticholinergic activity relative to the (+)-enantiomer” value in [1] (fraction of the activity of the (+)-enantiomer) is on record as 1/6. In addition, the “anticholinergic activity relative to the racemate” value in [1] (fraction of the activity of the racemate) is 1/3. In addition, the “doses at which no deaths occurred” value with mice [6] is given as “below 90 mg./kg”. Moreover, the “uptake of [3H]-norepinephrine reduced from the control value” in data set [2] (1 mg./kg. intraperitoneally, 1 hour before sacrifice) is recorded as 35%; in data set [2] (3 mg./kg. intraperitoneally, 1 hour before sacrifice), 58%; in data set [2] (10 mg./kg. intraperitoneally, 1 hour before sacrifice), 68%. Besides, the inhibition at 10 mg/kg in data set [2] (setting [12]) was about 65%; in [2] (setting [14]), over 80%. Besides, the “ED50 concentration in blood plasma” value in [2] (blood level plotted against rate of [3H]norepinephrine uptake) is on record as “about 14 x 10^-9 g./ml”. In addition, the Uptake in data set [7] (concentration 1 x 10^-9M, control without drug 3.9 x 10^-12 moles/mg. protein) is reported as 3.1 x 10^-12moles/mg. protein; in data set [7] (concentration 2 x 10^-9M, control 3.9), 2.2 x 10^-12moles/mg. protein; in [7] (concentration 3 x 10^-9M, control 3.9), 3.1 x 10^-12moles/mg. protein; in [7] (concentration 10 x 10^-9M, control 3.9), 1.4 x 10^-12moles/mg. protein; in data set [7] (concentration 30 x 10^-9M, control 3.9), 1.0 x 10^-12moles/mg. protein; in data set [7] (concentration 50 x 10^-9M, control 3.9) it was 0.9 x 10^-12moles/mg. protein. In addition, the Uptake in data set [7] (concentration 100 x 10^-9M, control 3.9) is on record as 0.8 x 10^-12moles/mg. protein. Also, the “potency in inhibiting the uptake of norepinephrine relative to the (+)-enantiomer” value in data set [7] (compared with the corresponding (+)-enantiomer) is “about 10 times”. The “dose giving 50% antagonism of the hypothermia” value in [9] turned out to be 0.16 mg/kg. This molecule had a highest antagonism in data set [9] (compound orally at 1 mg./kg., apomorphine intraperitoneally) of 35%. For the same molecule, the “concentration that suppressed the rate of rise and duration of the action potential” value in data set [10] worked out at 8 µM.

In the case of `CNCC[C@H](Oc1ccccc1C)c1ccccc1` [(+)-enantiomer, reference compound], the ED50 in data set [5] was about 22 mg/kg; in data set [2] (setting [13]), 6.3 mg/kg. In data set [1], the “negative logarithm of the dissociation constant” value came to 6.04. The “doses at which no deaths occurred” value with mice [6] was “below 90 mg./kg”. In addition, the inhibition at 10 mg/kg in [2] (setting [12]) amounted to 35%; in data set [2] (setting [14]) it was 70%; in data set [2] (second hour after administration, read-out: inhibition of norepinephrine uptake), 50%. Besides, the IC50 in data set [7] (norepinephrine uptake, hypothalamus synaptosomes, read-out: IC50 value, concentration which inhibited half of the uptake activity) amounted to 0.04 µM. In addition, the “time after administration at which mice were still stimulated” value in the data set on mice [11] was at least 5 h. Further, the “dose giving 50% antagonism of the hypothermia” value in data set [9] was found to be 2.26 mg/kg. Moreover, the antagonism in [9] (compound orally at 3 mg./kg., apomorphine intraperitoneally) is given as 50%.
